Assay results: patent US9469650B2, “Melampomagnolide B derivatives” (BOARD OF TRUSTEES OF THE UNIVERSITY OF ARKANSAS, priority 2013, dated 2016)
Like-named read-outs stand apart in the source and are kept apart here.

Tests used:
PC-3 = assay: panel of 60 human tumor cell lines, growth inhibition (Prostate Cancer); conditions: Homo sapiens
SF-539 = assay: panel of 60 human tumor cell lines, growth inhibition (CNS Cancer); conditions: Homo sapiens
CAKI-1 = assay: panel of 60 human tumor cell lines, growth inhibition (Renal Cancer); conditions: Homo sapiens
COLO 205 = assay: panel of 60 human tumor cell lines, growth inhibition (Colon Cancer); conditions: Homo sapiens
NCI-H23 = assay: panel of 60 human tumor cell lines, growth inhibition (Non-Small Cell Lung Cancer); conditions: Homo sapiens
KM12 = assay: panel of 60 human tumor cell lines, growth inhibition (Colon Cancer)
A498 = assay: panel of 60 human tumor cell lines, growth inhibition (Renal Cancer); conditions: Homo sapiens
SK-MEL-28 = assay: panel of 60 human tumor cell lines, growth inhibition (Melanoma); conditions: Homo sapiens
IGROV1 = assay: panel of 60 human tumor cell lines, growth inhibition (Ovarian Cancer); conditions: Homo sapiens
UACC-62 = assay: panel of 60 human tumor cell lines, growth inhibition (Melanoma); conditions: Homo sapiens
SK-MEL-2 = assay: as above; conditions: Homo sapiens
NCI/ADR-RES = assay: panel of 60 human tumor cell lines, growth inhibition (Ovarian Cancer); conditions: Homo sapiens
DU-145 = assay: panel of 60 human tumor cell lines, growth inhibition (Prostate Cancer); conditions: Homo sapiens
MOLT-4 = assay: panel of 60 human tumor cell lines, growth inhibition (Leukemia); conditions: Homo sapiens
MDA-MB-468 = assay: panel of 60 human tumor cell lines, growth inhibition (Breast Cancer); conditions: Homo sapiens
RXF 393 = assay: panel of 60 human tumor cell lines, growth inhibition (Renal Cancer); conditions: Homo sapiens
SNB-19 = assay: panel of 60 human tumor cell lines, growth inhibition (CNS Cancer); conditions: Homo sapiens
HOP-92 = assay: panel of 60 human tumor cell lines, growth inhibition (Non-Small Cell Lung Cancer); conditions: Homo sapiens

Structure (SMILES): C=C1C(=O)O[C@H]2[C@H]1CC/C(COC(=O)OCCCN1CCCCC1)=C\CC[C@@]1(C)O[C@@H]21 [JVM 2-26]
- Percent Growth (HL-60(TB); Log10 Concentration −4.0): −50%
- Percent Growth (HL-60(TB); Log10 Concentration −5.0): −10%
- Percent Growth (HL-60(TB); Log10 Concentration −6.0): 73%
- Percent Growth (HL-60(TB); Log10 Concentration −7.0): 64%
- Percent Growth (HL-60(TB); Log10 Concentration −8.0): 93%
- GI50 (PC-3; PC-3): 12.7 µM
- CC50 (PC-3; PC-3, read-out: LC50): 56.2 µM
- IC (TGI) (PC-3; PC-3, read-out: TGI): 16.7 µM
- GI50 (SF-539; SF-539): 2390 nM
- CC50 (SF-539; SF-539, read-out: LC50): 32.1 µM
- IC (TGI) (SF-539; SF-539, read-out: TGI): 8.7 µM
- GI50 (CAKI-1; CAKI-1): 2190 nM
- CC50 (CAKI-1; CAKI-1, read-out: LC50): 34.5 µM
- IC (TGI) (CAKI-1; CAKI-1, read-out: TGI): 11.9 µM
- GI50 (COLO 205; COLO 205): 1700 nM
- CC50 (COLO 205; COLO 205, read-out: LC50): 7.07 µM
- IC (TGI) (COLO 205; COLO 205, read-out: TGI): 3.47 µM
- GI50 (NCI-H23; NCI-H23): 12.8 µM
- CC50 (NCI-H23; NCI-H23, read-out: LC50): 67.1 µM
- IC (TGI) (NCI-H23; NCI-H23, read-out: TGI): 29.4 µM
- GI50 (KM12; Homo sapiens, KM12): 15.5 µM
- CC50 (KM12; Homo sapiens, KM12, read-out: LC50): 63.3 µM
- TGI (KM12; KM12): 3.13E−5
- Percent Growth (KM12; KM12, Log10 Concentration −4.0): −83%
- Percent Growth (KM12; KM12, Log10 Concentration −5.0): 81%
- Percent Growth (KM12; KM12, Log10 Concentration −6.0): 97%
- Percent Growth (KM12; KM12, Log10 Concentration −7.0): 94%
- Percent Growth (KM12; KM12, Log10 Concentration −8.0): 95%
- GI50 (A498; A498): 10.1 µM
- CC50 (A498; A498, read-out: LC50): 47 µM
- IC (TGI) (A498; A498, read-out: TGI): 21.8 µM
- GI50 (SK-MEL-28; SK-MEL-28): 3.83 µM
- CC50 (SK-MEL-28; SK-MEL-28, read-out: LC50): 41 µM
- IC (TGI) (SK-MEL-28; SK-MEL-28, read-out: TGI): 15.5 µM
- GI50 (IGROV1; IGROV-1): 13.2 µM
- CC50 (IGROV1; IGROV-1, read-out: LC50): 76.3 µM
- IC (TGI) (IGROV1; IGROV-1, read-out: TGI): 31.7 µM
- GI50 (UACC-62; UACC-62): 8.05 µM
- CC50 (UACC-62; UACC-62, read-out: LC50): 47.1 µM
- IC (TGI) (UACC-62; UACC-62, read-out: TGI): 11 µM
- GI50 (SK-MEL-2; SK-MEL-2): 11.2 µM
- CC50 (SK-MEL-2; SK-MEL-2, read-out: LC50): 55.8 µM
- IC (TGI) (SK-MEL-2; SK-MEL-2, read-out: TGI): 25.1 µM
- GI50 (NCI/ADR-RES): 17.2 µM
- CC50 (NCI/ADR-RES; read-out: LC50): > 100 µM
- IC (TGI) (NCI/ADR-RES; read-out: TGI): 45.8 µM
- GI50 (DU-145; DU-145): 3.19 µM
- CC50 (DU-145; DU-145, read-out: LC50): 35.3 µM
- IC (TGI) (DU-145; DU-145, read-out: TGI): 12.5 µM
- GI50 (MOLT-4; MOLT-4): 4.07 µM
- CC50 (MOLT-4; MOLT-4, read-out: LC50): 98.7 µM
- IC (TGI) (MOLT-4; MOLT-4, read-out: TGI): 10.4 µM
- GI50 (MDA-MB-468; MDA-MB-468): 601 nM
- CC50 (MDA-MB-468; MDA-MB-468, read-out: LC50): 10.5 µM
- IC (TGI) (MDA-MB-468; MDA-MB-468, read-out: TGI): 2.78 µM
- GI50 (RXF 393; RXF 393, RXF 393): 2350 nM
- CC50 (RXF 393; RXF 393, read-out: LC50): 34 µM
- IC (TGI) (RXF 393; RXF 393, read-out: TGI): 8.65 µM
- GI50 (SNB-19; SNB-19): 13.5 µM
- CC50 (SNB-19; SNB-19, read-out: LC50): 56.3 µM
- IC (TGI) (SNB-19; SNB-19, read-out: TGI): 27.5 µM
- GI50 (HOP-92; HOP-92, HOP-92): 1960 nM
- CC50 (HOP-92; HOP-92, read-out: LC50): 31.4 µM
- IC (TGI) (HOP-92; HOP-92, read-out: TGI): 7.47 µM
